Test results reported in patent US20090191173A1, “Induction Of Neurogenesis And Stem Cell Therapy In Combination With Copolymer 1” (priority 2004, published 2009).

Tests used:
[1] = test system: neural progenitor cells (NPCs); test: Neurogenesis from NPCs co-cultured with microglia pre-activated by aggregated Aβ and cytokines; format: cell-based, mouse; details: 10 days; Aβ 5 μM 48 h, cytokines 10 ng/ml
Experimental: (xx) Reagents. Recombinant mouse IFN-γ and IL-4 (both containing endotoxin at a concentration below 0.1 ng/μg cytokine) were obtained from R&D Systems (Minneapolis, Minn.). β-amyloid peptides [amyloid protein fragment 1-40 and 1-42 (Aβ1-40/1-42)] were purchased from Sigma-Aldrich, St. Louis, Mo. The Aβ peptides were dissolved in endotoxin-free water, and Aβ aggregates were formed by incubation of Aβ, as described (Ishii et al., 2000). (xxv) Neural progenitor cell culture. Coronal sections (2 mm thick) of tissue containing the subventricular zone of the lateral ventricle were obtained from the brains of adult C57B1/6J mice. […] After centrifugation at 110×g for 15 min at room temperature, the tissue was mechanically dissociated by pipette trituration. Cells obtained from single-cell suspensions were plated (3500 cells/cm^2) in 75-cm^2 Falcon tissue-culture flasks (BD Biosciences, San Diego, Calif.), in NPC-culturing medium [Dulbecco's modified Eagles's medium (DMEM)/F12 medium (Gibco/Invitrogen, Carlsbad, Calif.) containing 2 mM L-glutamine, 0.6% glucose, 9.6 μg/ml putrescine, 6.3 ng/ml progesterone, 5.2 ng/ml sodium selenite, 0.02 mg/ml insulin, 0.1 mg/ml transferrin, 2 μg/ml heparin (all from Sigma-Aldrich, Rehovot, Israel), fibroblast growth factor-2 (human recombinant, 20 ng/ml), and epidermal growth factor (human recombinant, 20 ng/ml; both from Peprotech, Rocky Hill, N.J.)]. Spheres were passaged every 4-6 days and replated as single cells. Green fluorescent protein (GFP)-expressing NPCs were obtained as previously described (Pluchino et al., 2003). (xxvi) Primary microglial culture. Brains from neonatal (P0-P1) C57B1/6J mice were stripped of their meninges and minced with scissors under a dissecting microscope (Zeiss, Stemi DV4, Germany) in Leibovitz-15 medium (Biological Industries, Kibbutz Beit Ha-Emek, Israel). […] The cell suspension was washed in culture medium for glial cells [DMEM supplemented with 10% fetal calf serum (FCS; Sigma-Aldrich, Rehovot), L-glutamine (1 mM), sodium pyruvate (1 mM), penicillin (100 U/ml), and streptomycin ([…])] and cultured at 37° C./5% CO2 in 75-cm^2 Falcon tissue-culture flasks (BD Biosciences) coated with poly-D-lysine (PDL) (10 mg/ml; Sigma-Aldrich, Rehovot) in borate buffer (2.37 g borax and 1.55 g boric acid dissolved in 500 ml sterile water, pH 8.4) for 1 h, then rinsed thoroughly with sterile, glass-distilled water. Half of the medium was changed after 6 h in culture and every 2nd day thereafter, starting on day 2, for a total culture time of 10-14 days. […]

aNPCs = test: Neuronal differentiation of aNPCs with CD4+ T cells, T cell-conditioned medium or cytokines; format: cell-based, mouse; details: 5 days in culture with cytokine, concentrations as low as 1 ng/ml
Experimental: (xvii) Co-culturing of neural progenitor cells and T cells. CD4+ T cells were purified from lymph nodes of 8-week-old C57B16/J mice as previously described (Kipnis et al., 2004). T cells were activated in RPMI medium supplemented with L-glutamine (2 mM), 2-mercaptoethanol (5×10^−5 M), sodium pyruvate (1 mM), penicillin (100 IU/ml), streptomycin (100 μg/ml), nonessential amino acids (1 ml/100 ml), and autologous serum 2% (v/v) in the presence of mouse recombinant IL-2 (mrIL-2; 5 ng/ml) and soluble anti-CD28 and anti-CD3. antibodies (1 ng/ml). T cells were co-cultured (5×10^4 cells/well) with aNPCs (5×10^4 cells/well) for 5 d on cover slips coated with Matrigel (BD Biosciences) in 24-well plates. The cultures were then fixed with 2.5% paraformaldehyde in PBS for 30 min at room temperature and stained for neuronal markers.
We therefore sought to determine whether direct interaction between aNPCs and T cells would also result in an altered pattern of aNPC differentiation. To address this question, we activated CD4+ T cells in vitro by a cognate protocol (with anti-CD3 antibodies, anti-CD28 antibodies, and IL-2) for 24 h and then allowed their activation to continue in co-cultures with aNPCs in a transwell culture system. […] After 5 days in culture the aNPCs in the lower chamber were fixed and analyzed for the appearance of newly formed neurons. […]

With IL-4: recombinant interleukin-4 the “neurogenesis (GFP+/βIIIT+ cells) from NPCs co-cultured with treated microglia” value [1] was “partially counteracted the adverse effect of the aggregated Aβ” and the “β-III-tubulin expression in aNPCs” value (aNPCs) was “no change in β-III-tubulin expression”.
